Results as given in patent publication US5462957A, “Azole derivatives, pharmaceutical compositions containing the same, and method for treating mycosis and estrogen-dependent diseases” (Kureha Chemical Industry Co., Ltd., priority 1992, dated 1995).
Read-outs that look alike come from different tables or passages of the source.

Key:
aromatase = biological target: T1, aromatase (Homo sapiens, UniProt P11511); experiment: Aromatase inhibitory activity (human placenta microsomes, [19-14C]4-androstene-3,17-dione); assay type: biochemical
T1 construct: human placenta microsomes (a protein concentration of 0.1 mg/ml); from tissue; host or cells: human placenta microsomes
T1 sequence (P11511 1-503): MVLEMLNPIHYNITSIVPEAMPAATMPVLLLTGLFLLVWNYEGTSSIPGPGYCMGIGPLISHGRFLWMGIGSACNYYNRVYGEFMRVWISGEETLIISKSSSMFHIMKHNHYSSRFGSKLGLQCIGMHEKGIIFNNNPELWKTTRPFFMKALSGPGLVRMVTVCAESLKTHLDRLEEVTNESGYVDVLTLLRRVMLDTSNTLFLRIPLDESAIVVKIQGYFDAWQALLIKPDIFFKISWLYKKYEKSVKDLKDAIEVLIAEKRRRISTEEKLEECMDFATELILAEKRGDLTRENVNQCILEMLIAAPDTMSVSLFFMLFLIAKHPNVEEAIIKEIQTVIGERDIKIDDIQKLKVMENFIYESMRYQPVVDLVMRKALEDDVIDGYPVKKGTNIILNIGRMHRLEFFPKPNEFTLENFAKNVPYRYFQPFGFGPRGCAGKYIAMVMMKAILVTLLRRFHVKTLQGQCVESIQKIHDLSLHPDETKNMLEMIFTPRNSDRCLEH
Experimental: The aromatase enzyme-inhibitory activity was determined in the manner described by Covey, D. F., Biochem. Biophys. Res. Commu., 157 (1), 81-86, 1988. More specifically, the aromatase-inhibitory activity of a compound of formula (I) was evaluated in terms of the concentration (IC50) of the compound causing 50% inhibition of the aromatase activity.
Aromatase activity was determined in the manner described by Covey, D. F., Biochem. Biophys. Res. Commun. 157 (1), 81-86 (1988).
Aromatase inhibitory activity of the compounds was evaluated in the 50% aromarase-inhibitory concentration (IC50). Microsomes of human-placenta and [19-^14 C]4-androstene-3,17 dione were used as an aromatase source and a substrate, respectively.
The radioactivity of H^14 COOH which was released into a reaction mixture as a result of aromatization was measured to evaluate the aromatase activity.
The aromatase inhibitory activity and the concentration of each compound was depicted in a graph, from which the IC50 was determined.
[19-^14 C]4-Androstene-3,17-dione (1×10^-6 M, 2 KBq/ml), human placenta microsomes (a protein concentration of 0.1 mg/ml), coenzyme NADP (2×10^-3 M), glucose-6-phosphoric acid (4×10^-3 M), and glucose-6-phosphoric acid dehydrogenase (4U/ml) were added to a phosphoric acid buffer solution (67 mM, pH 7.2, 0.5 ml) and reacted at 37° C. for 30 minutes while the mixture was being shaken.
The test compound dissolved in DMSO was added to the reaction mixture and the final concentration of DMSO was in the range of 0.1 to 0.55% by volume per volume.
Chloroform (5 ml) was then added to the reaction mixtures to cease the reaction. The H^14 COOH, which had been released into a reaction mixture, was recovered in a water layer by stirring the reaction mixture. The water layer (0.1 ml) was added to a liquid scintillation cocktail (Atomlight, Dupont, 4 ml) to measure its radioactivity.
The positive control is 4-hydroxyandrostenedione.

in vivo = conditions: mouse, po
Experimental: Acute toxicity by oral route was investigated using ICR-JCL mice.
The compounds of the present invention, Compound Nos. 1, 2, 13, 14, 33, 34, 41, 42, 47, 48, 53, 54, 67, and 68, were dissolved or dispersed in polyethylene glycol 200 or physiological saline. The solution or suspension was given in a prescribed amount by means of a syringe or a stomach tube.

[1] = test system: Candida albicans (IFO 1060); experiment: Antimycotic activity: survival of mice infected with Candida albicans; assay type: in vivo; conditions: IFO1060, 480 h, female ICR mice, oral, 100 mg/kg day for 5 consecutive days, observed for 20 days, control and solvent control 20, read-out: Survival Rate (%)
Experimental: The evaluation of antimycotic activity can be carried out by administering a dosage of the compound in […] that have been inoculated with a strain of Candida albicans, preferably orally, and observing the mortality of the inoculated mice for 20 days.
The survival rate was calculated from the mean survival days.
Five-week-old female ICR mice of 10 animals per group were infected with Candida albicans (IFO 1060) in an amount of 4.8×10^6 cfu (colony forming unit)/mouse through a tail vein.
After one hour following the introduction of the infection, a solution of each compound (see Table 8 below) in polyethylene glycol 200 was orally administered for 5 consecutive days in the amount of 100 mg/kg day.
In Table 8, the solvent group was administered only with polyethylene glycol.

[2] = test system: spontaneous mastocarcinoma; experiment: Antitumor effects: tumor growth inhibition in rats with mastocarcinoma; assay type: in vivo, Sprague-Dawley rats; conditions: Rattus norvegicus, ip, read-out: Tumor growth inhibition rate (%)
Experimental: Fifty-day-old female Sprague-Dawley rats were orally given 7,12-dimethylbenzanthracene (15 mg/kg) and observed for two months. Those rats developing spontaneous mastocarcinoma were selected and divided into groups each consisting of 15 animals: groups each of which is to be given a different compound of the present invention; a group to be given a control compound; and a control group to be given a simple physiological saline solution. Each group was intraperitoneally given the corresponding physiological saline solution or dispersion in an amount of 25 mg/kg daily for 20 consecutive days. Five days after the last administration, the rats were sacrificed to weigh the tumors. The mean tumor weight (T) of the 15 rats of each of the groups which had been given compounds of the present invention or the control compound, and the mean tumor weight (C) of the 15 rats of the control group which had been given a simple physiological saline solution were calculated. The tumor growth inhibition rate of each group was calculated on the basis of the following formula:
Tumor Growth Inhibition Rate (%) = {1-T/C)} × 100. Positive control is 4-hydroxyandrostenedione.

[3] = female Sprague-Dawley rats given 7,12-dimethylbenzanthracene, intraperitoneal, 25 mg/kg daily for 20 consecutive days, mean tumor weight vs saline control
[4] = human placenta microsomes, substrate 1×10^-6 M, pH 7.2, 37° C., 30 minutes, read-out: IC50

Q: For `CC1OCC(Cc2ccc(F)cc2)C1(O)Cn1cncn1` (stereo not drawn) [Compound No. 1, 4-(4-fluorobenzyl)-3-hydroxy-2-methyl-3-(1H-1,2,4-triazol-1-ylmethyl) tetrahydrofuran], which IC50 (aromatase) is on record?
A: 6000 nM

Q: And the LD50 at 168 h (in vivo)?
A: > 1000 mg/kg

Q: And the responders at 100 mg/kg [1]?
A: 40%

Q: What about the inhibition in vivo at 25 mg/kg [2, 3] of the same compound?
A: 60%

Q: For `CC1(C)OCC(Cc2ccc(F)cc2)C1(O)Cn1cncn1` (stereo not drawn) [Compound No. 13, 4-(4-fluorobenzyl)-3-hydroxy-2,2-dimethyl-3 (1H-1,2,4-triazole-1-ylmethyl) tetrahydrofuran], which IC50 (aromatase) is on record?
A: 5300 nM

Q: And the LD50 at 168 h (in vivo)?
A: > 1000 mg/kg

Q: What about the responders at 100 mg/kg [1] of the same compound?
A: 55%

Q: And the inhibition in vivo at 25 mg/kg [2, 3]?
A: 58%

Q: Which results are given for `CC1(C)OCC(Cc2ccc(F)cc2)C1(O)Cn1ccnc1` (stereo not drawn) [Compound No. 14, 4-(4-fluorobenzyl)-3-hydroxy-3-(imidazol-1-ylmethyl)-2,2-dimethyltetrahydrofuran]?
A: IC50 (aromatase): 480 nM; LD50 at 168 h (in vivo): > 1000 mg/kg; responders at 100 mg/kg [1]: 70%; inhibition in vivo at 25 mg/kg [2, 3]: 63%

Q: With `CC1(C)OCC(Cc2ccc(Cl)cc2)C1(O)Cn1cncn1` (stereo not drawn) [Compound No. 33, 4-(4-chlorobenzyl)-3-hydroxy-2,2-dimethyl-3-(1H-1,2,4-triazol-1-ylmethyl) tetrahydrofuran] as the compound, how does the IC50 (aromatase) read?
A: 7000 nM

Q: And the LD50 at 168 h (in vivo)?
A: > 1000 mg/kg

Q: What about the responders at 100 mg/kg [1] of the same compound?
A: 60%

Q: And the inhibition in vivo at 25 mg/kg [2, 3]?
A: 65%

Q: With `CC1(C)OCC(Cc2ccc(Cl)cc2)C1(O)Cn1ccnc1` (stereo not drawn) [Compound No. 34, 4-(4-chlorobenzyl)-3-hydroxy-3-(1H-imidazol-l-ylmethyl) -2,2-dimethyltetrahydrofuran] as the compound, how does the IC50 (aromatase) read?
A: 500 nM

Q: And the LD50 at 168 h (in vivo)?
A: > 1000 mg/kg

Q: What about the responders at 100 mg/kg [1] of the same compound?
A: 80%

Q: And the inhibition in vivo at 25 mg/kg [2, 3]?
A: 80%

Q: For `CC1(C)OCC(Cc2ccc(C#N)cc2)C1(O)Cn1cncn1` (stereo not drawn) [Compound No. 53], which IC50 (aromatase) is on record?
A: 1200 nM

Q: And the LD50 at 168 h (in vivo)?
A: > 1000 mg/kg

Q: What about the responders at 100 mg/kg [1] of the same compound?
A: 42%

Q: And the inhibition in vivo at 25 mg/kg [2, 3]?
A: 60%

Q: Which results are given for `CC1(C)OCC(Cc2ccc(C#N)cc2)C1(O)Cn1ccnc1` (stereo not drawn) [Compound No. 54]?
A: IC50 (aromatase; [4]): 1000 nM; LD50 at 168 h (in vivo): > 1000 mg/kg; responders at 100 mg/kg [1]: 40%; inhibition in vivo at 25 mg/kg [2, 3]: 73%

Q: Which IC50 (aromatase) does the source give for `CC1(C)OCC(Cc2ccccc2-c2ccccc2)C1(O)Cn1cncn1` (stereo not drawn) [Compound No. 67] here?
A: 4700 nM

Q: What about the LD50 at 168 h (in vivo) of the same compound?
A: > 1000 mg/kg

Q: What about the responders at 100 mg/kg [1] of the same compound?
A: 53%

Q: And the inhibition in vivo at 25 mg/kg [2, 3]?
A: 74%

Q: What does the source list for `CC1(C)OCC(Cc2ccccc2-c2ccccc2)C1(O)Cn1ccnc1` (stereo not drawn) [Compound No. 68]?
A: IC50 (aromatase; [4]): 350 nM; LD50 at 168 h (in vivo): > 1000 mg/kg; responders at 100 mg/kg [1]: 62%; inhibition in vivo at 25 mg/kg [2, 3]: 85%

Q: Which inhibition in vivo at 25 mg/kg [2] does the source give for `C[C@]12CCC(=O)C(O)=C1CC[C@@H]1[C@@H]2CC[C@]2(C)C(=O)CC[C@@H]12` [Positive Control, 4-hydroxyandrostenedione, reference compound] here?
A: 48%

Q: Which IC50 (aromatase; [4]) does the source give for `CC1OCC(Cc2ccc(F)cc2)C1(O)Cn1ccnc1` (stereo not drawn) [compound 2, 4-(4-fluorobenzyl)-3-hydroxy-3-(imidazol-1-ylmethyl)-2-methyl tetrahydrofuran] here?
A: 530 nM

Q: And the LD50 at 168 h (in vivo)?
A: > 1000 mg/kg

Q: And the responders at 100 mg/kg [1]?
A: 55%

Q: And the inhibition in vivo at 25 mg/kg [2, 3]?
A: 54%

Q: Which IC50 (aromatase; [4]) does the source give for `OC1(Cn2cncn2)COCC1Cc1ccc(F)cc1` (stereo not drawn) [compound 21] here?
A: 4700 nM

Q: What about the responders at 100 mg/kg [1] of the same compound?
A: 37%

Q: And the inhibition in vivo at 25 mg/kg [2, 3]?
A: 72%

Q: Which IC50 (aromatase; [4]) does the source give for `OC1(Cn2ccnc2)COCC1Cc1ccc(F)cc1` (stereo not drawn) [compound 22] here?
A: 630 nM

Q: And the responders at 100 mg/kg [1]?
A: 46%

Q: What about the inhibition in vivo at 25 mg/kg [2, 3] of the same compound?
A: 75%

Q: With `CC1(C)OCC(Cc2ccc(F)cc2F)C1(O)Cn1cncn1` (stereo not drawn) [compound 41] as the compound, how does the IC50 (aromatase) read?
A: 3000 nM

Q: What about the LD50 at 168 h (in vivo) of the same compound?
A: > 1000 mg/kg

Q: What about the responders at 100 mg/kg [1] of the same compound?
A: 56%

Q: What about the inhibition in vivo at 25 mg/kg [2, 3] of the same compound?
A: 48%

Q: For `CC1(C)OCC(Cc2ccc(F)cc2F)C1(O)Cn1ccnc1` (stereo not drawn) [compound 42], which IC50 (aromatase) is on record?
A: 270 nM

Q: What about the LD50 at 168 h (in vivo) of the same compound?
A: > 1000 mg/kg

Q: What about the responders at 100 mg/kg [1] of the same compound?
A: 63%

Q: And the inhibition in vivo at 25 mg/kg [2, 3]?
A: 56%

Q: Which results are given for `CC1(C)OCC(Cc2ccc(Cl)cc2Cl)C1(O)Cn1cncn1` (stereo not drawn) [compound 47]?
A: IC50 (aromatase): 1000 nM; LD50 at 168 h (in vivo): > 1000 mg/kg; responders at 100 mg/kg [1]: 58%; inhibition in vivo at 25 mg/kg [2, 3]: 55%

Q: Which results are given for `CC1(C)OCC(Cc2ccc(Cl)cc2Cl)C1(O)Cn1ccnc1` (stereo not drawn) [compound 48]?
A: IC50 (aromatase): 1500 nM; LD50 at 168 h (in vivo): > 1000 mg/kg; responders at 100 mg/kg [1]: 53%; inhibition in vivo at 25 mg/kg [2, 3]: 70%
